Where two headings read alike, the source gives them in different places.
Columns and labels:
[1] = target: T1, glucocorticoid receptor (Homo sapiens, UniProt P04150); test: Glucocorticoid Receptor Binding Assay (fluorescence polarisation, displacement of Alexa 555 labelled dexamethasone derivative); settings: at least once in this assay; read-out: glucocorticoid binding pIC50 (converted)
T1 construct: a partially purified full length glucocorticoid receptor
T1 sequence (P04150 1-777): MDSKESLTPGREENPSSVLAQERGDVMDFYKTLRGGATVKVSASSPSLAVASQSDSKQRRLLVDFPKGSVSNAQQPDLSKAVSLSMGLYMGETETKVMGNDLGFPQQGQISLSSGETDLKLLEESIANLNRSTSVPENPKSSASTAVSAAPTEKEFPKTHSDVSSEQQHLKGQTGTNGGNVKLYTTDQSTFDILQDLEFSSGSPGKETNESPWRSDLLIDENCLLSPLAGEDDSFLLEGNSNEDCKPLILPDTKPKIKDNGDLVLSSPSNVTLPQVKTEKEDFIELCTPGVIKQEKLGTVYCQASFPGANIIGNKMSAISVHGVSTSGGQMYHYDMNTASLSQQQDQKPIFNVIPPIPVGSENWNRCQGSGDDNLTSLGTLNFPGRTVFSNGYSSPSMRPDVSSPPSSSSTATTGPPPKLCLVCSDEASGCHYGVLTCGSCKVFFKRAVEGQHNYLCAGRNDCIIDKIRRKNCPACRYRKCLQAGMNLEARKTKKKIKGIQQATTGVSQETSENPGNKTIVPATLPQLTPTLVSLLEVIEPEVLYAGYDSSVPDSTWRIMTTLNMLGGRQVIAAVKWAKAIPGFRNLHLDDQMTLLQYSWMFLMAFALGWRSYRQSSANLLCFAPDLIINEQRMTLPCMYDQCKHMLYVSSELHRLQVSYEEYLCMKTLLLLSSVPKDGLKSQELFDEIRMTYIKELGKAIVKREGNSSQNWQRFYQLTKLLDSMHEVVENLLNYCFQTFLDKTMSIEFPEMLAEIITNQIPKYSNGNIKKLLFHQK
Method: Compounds were solvated and diluted in DMSO, and transferred directly into assay plates. Fluorescent dexamethasone and a partially purified full length glucocorticoid receptor were added to the plates, together with buffer components to stabilise the GR protein and incubated at room temperature for 2 hr in the dark. Binding of each compound was assessed by analysing the displacement of fluorescent ligand by measuring the decrease in fluorescence polarisation signal from the mixture.

[2] = target: T2, GR (Homo sapiens, UniProt P04150); test: GR Functional Assay - NFκB Assay (A549 SPAP cells, TNFα stimulated); type: cell-based; settings: for Emax: agonists, read-out: average maximum asymptote in the NFkB assay
T2 construct: endogenous in cells; host or cells: A549 (human lung carcinoma, ECACC No. 86012804), stably transfected with reporter plasmids only
T2 sequence (P04150 1-777): T1 sequence (P04150 1-777)
Method: Stimulation of the cell line with TNFα results in intracellular signal transduction and ultimately translocation of NFκB into the nucleus. This activates the inserted DNA sequence resulting in transcription of the integrated SPAP gene, which is quantified using a calorimetric assay. […] The stably transfected cell line was grown as a monolayer in DMEM supplemented with FCS-HI (10%), Non-essential amino acids (1%), L-Glutamine (2 mM), Pen/Strep (1%) and Geneticin (50 mg/ml).
A 70% confluent T225 flask of A549 SPAP cells was harvested by centrifugation for 5 mins at 200 g, resuspended in assay buffer (DMEM supplemented with 10% FCS 2×HI, 2 mM L-Glutamine, 1% Pen/Strep and Non essential amino acids) and diluted to 0.16×10^6/ml. 60 μl of cell solution was dispensed to each well of clear Nunc 384-well plates, containing compound at the required concentration. […] Plates were equilibrated to room temperature for 1 hr prior to the addition of 25 μl of pNPP buffer (1M Diethanolamine pH 9.8, 0.5 mM MgCl2, 0.28M NaCl, 2 mg/ml pNPP) to each well of assay plates.

[3] = target: T2, GR; test: GR Agonist Assay - MMTV Assay (A549 MMTV cells, renilla luciferase reporter); type: cell-based; settings: 6 h, agonists, read-out: average maximum asymptote in the MMTV agonist assay
Method: Stimulation of the cell line with GR agonists results in intracellular signal transduction and ultimately translocation of GR into the nucleus. This activates the inserted DNA sequence resulting in transcription of the integrated luciferase gene, which is quantified using a light emission. The stably transfected cell line was grown as a monolayer in DMEM supplemented with FCS-HI (10%), Non-essential amino acids (1%), L-Glutamine (2 mM), Pen/Strep (1%) and Geneticin (50 mg/ml).
A 90% confluent T175 flask of A549 MMTV cells was harvested by centrifugation for 5 min at 200 g, resuspended in assay buffer (DMEM supplemented with 10% FCS 2×HI, 2 mM Glutamax, Non essential amino acids and 25 mM HEPES) and diluted to 0.1×10^6/ml. 70 μl of cell solution was dispensed to each well of white Nunc 384-well plates, containing compound at the required concentration. […] The plates were covered to protect the reagents from light, and then incubated at room temperature for approximately 15 mins before reading them on a Viewlux.

[4] = at least once in the NFkB assay, A549 SPAP cells, read-out: pIC50 in the NFkB assay (converted)
[5] = at least once, examples listed as agonists in NFkB and MMTV assays, read-out: potency pIC50 in the NFKB assay (converted)

SMILES	IC50 [1] [µM]	Emax ([2]; A549 SPAP cells) [%]	IC50 [2, 4] [µM]	IC50 [2, 5] [µM]	Emax [3] [%]
CCN(CC(O)(CNC(=O)c1cnn(-c2ccc(F)cc2)c1N)C(F)(F)F)C(=O)c1cccc(Cl)c1 (racemic) [Example 17 (racemic), 5-amino-N-(2-{[[(3-chlorophenyl)car-bonyl](ethyl)amino]methyl}-3,3,3-trifluoro-2-hydroxypropyl)-1-(4-fluorophenyl)-1H-pyrazole-4-carboxamide]	< 1	≥ 40	< 1	< 0.316	≥ 40
CCN(CC(O)(CNC(=O)c1cnn(-c2cccc(F)c2)c1N)C(F)(F)F)C(=O)c1ccccc1 (racemic) [Example 35 (racemic), 5-amino-N-(2-{[ethyl(phenylcarbonyl)amino]methyl}-3,3,3-trifluoro-2-hydroxypropyl)-1-(3-fluorophenyl)-1H-pyrazole-4-carboxamide]	< 1	≥ 40	–	< 0.316	≥ 40
CCN(CC(O)(CNC(=O)c1cnn(-c2ccc(F)cc2)c1N)C(F)(F)F)C(=O)c1cccc(F)c1Cl (racemic) [Example 18 (racemic), 5-amino-N-(2-{[[(2-chloro-3-fluorophenyl)car-bonyl](ethyl)amino]methyl}-3,3,3-trifluoro-2-hydroxypropyl)-1-(4-fluorophenyl)-1H-pyrazole-4-carboxamide]	< 1	≥ 40	< 1	< 0.316	≥ 40
CCN(CC(O)(CNC(=O)c1cnn(-c2ccc(Cl)cc2)c1N)C(F)(F)F)C(=O)c1ccccc1 (racemic) [Example 32 (racemic), 5-amino-1-(4-chlorophenyl)-N-(2-{[ethyl(phenylcarbonyl)amino]methyl}-3,3,3-trifluoro-2-hydroxypropyl)-1H-pyrazole-4-carboxamide]	< 1	≥ 40	–	< 0.316	≥ 40
Nc1c(C(=O)NCC(O)(CN(CCF)C(=O)c2ccccc2OC(F)F)C(F)(F)F)cnn1-c1ccc(F)cc1 (racemic) [Example 11 (racemic), 5-amino-N-(2-{[({2-[(difluoromethyl)oxy]phenyl}carbonyl) (2-fluoroethyl)amino]methyl}-3,3,3-trifluoro-2-hydroxypropyl)-1-(4-fluorophenyl)-1H-pyrazole-4-carboxamide]	–	≥ 40	–	< 0.316	≥ 40
Nc1c(C(=O)NCC(O)(CN(CCF)C(=O)c2ccccc2)C(F)(F)F)cnn1-c1ccc(F)cc1 (single isomer, unassigned) [Example 1 Enantiomer 2, 5-Amino-1-(4-fluorophenyl)-N-(3,3,3-trifluoro-2-{[(2-fluoroethyl)(phenylcarbonyl)amino]methyl}-2-hydroxypropyl)-1H-pyrazole-4-carboxamide]	–	≥ 40	–	< 0.316	≥ 40
CCN(CC(O)(CNC(=O)c1cnn(-c2ccc(F)cc2)c1N)C(F)(F)F)C(=O)c1ccccc1 (single isomer, unassigned) [Example 14 Enantiomer 2, 5-amino-N-(2-{[ethyl(phenylcar-bonyl)amino]methyl}-3,3,3-trifluoro-2-hydroxypropyl)-1-(4-fluorophenyl)-1H-pyrazole-4-carboxamide]	–	≥ 40	< 1	< 0.316	≥ 40
CN(CC(O)(CNC(=O)c1cnn(-c2ccc(F)cc2)c1N)C(F)(F)F)C(=O)c1ccccc1 (racemic) [Example 25 (racemic), 5-amino-1-(4-fluorophenyl)-N-(3,3,3-trifluoro-2-hydroxy-2-{[methyl(phenylcarbonyl)amino]methyl}propyl)-1H-pyrazole-4-carboxamide]	< 1	–	< 1	–	–
CN(CC(O)(CNC(=O)c1cnn(-c2ccc(F)cc2)c1N)C(F)(F)F)C(=O)c1ncccc1F (racemic) [Example 29 (racemic), N-{2-[({[5-amino-1-(4-fluorophenyl)-1H-pyrazol-4-yl]carbonyl}amino)methyl]-3,3,3-trifluoro-2-hydroxypropyl}-3-fluoro-N-methyl-2-pyridinecarboxamide]	–	–	< 1	–	–
CCN(CC(O)(CNC(=O)c1cnn(-c2ccc(F)cc2)c1N)C(F)(F)F)C(=O)c1ccc(Cl)cc1 (racemic) [Example 19 (racemic), 5-amino-N-(2-{[[(4-chlorophenyl)car-bonyl](ethyl)amino]methyl}-3,3,3-trifluoro-2-hydroxypropyl)-1-(4-fluorophenyl)-1H-pyrazole-4-carboxamide]	< 1	–	–	–	–
CCN(CC(O)(CNC(=O)c1cnn(-c2ccccc2Cl)c1N)C(F)(F)F)C(=O)c1ccccc1 (racemic) [Example 36 (racemic), 5-amino-1-(2-chlorophenyl)-N-(2-{[ethyl(phenylcar-bonyl)amino]methyl}-3,3,3-trifluoro-2-hydroxypropyl)-1H-pyrazole-4-carboxamide]	< 1	–	–	–	–
CN(CC(O)(CNC(=O)c1cnn(-c2ccc(F)cc2)c1N)C(F)(F)F)C(=O)c1cccc(C(F)(F)F)c1 (racemic) [Example 26 (racemic), 5-amino-1-(4-fluorophenyl)-N-{3,3,3-trifluoro-2-hydroxy-2-[(methyl{[3-(trifluoromethyl)phenyl]carbonyl}amino)methyl]propyl}-1H-pyrazole-4-carboxamide]	< 1	–	–	–	–
CCN(CC(O)(CNC(=O)c1cnn(-c2ccc(F)cc2)c1N)C(F)(F)F)C(=O)c1ccc(F)c(F)c1 (racemic) [Example 21 (racemic), 5-amino-N-(2-{[[(3,4-difiuorophenyl)car-bonyl](ethyl)amino]methyl}-3,3,3-trifluoro-2-hydroxypropyl)-1-(4-fluorophenyl)-1H-pyrazole-4-carboxamide]	< 1	–	< 1	–	–
CCN(CC(O)(CNC(=O)c1cnn(-c2ccc(F)cc2)c1N)C(F)(F)F)C(=O)c1cccc(C(C)=O)c1 (racemic) [Example 22 (racemic), N-(2-{[[(3-acetylphenyl)car-bonyl](ethyl)amino]methyl}-3,3,3-trifluoro-2-hydroxypropyl)-5-amino-1-(4-fluorophenyl)-1H-pyrazole-4-carboxamide]	< 1	–	–	–	–
CN(CC(O)(CNC(=O)c1cnn(-c2ccc(F)cc2)c1N)C(F)(F)F)C(=O)c1cccc2cccnc12 (racemic) [Example 42 (racemic), N-{2-[({[5-amino-1-(4-fluorophenyl)-1H-pyrazol-4-yl]carbonyl}amino)methyl]-3,3,3-trifluoro-2-hydroxypropyl}-N-methyl-8-quinolinecarboxamide]	–	≥ 40	–	< 0.316	≥ 40
